The source of these data is patent US12630600B2 (MEDIMMUNE LIMITED, priority 2022, dated 2026).

Molecules are shown by their SMILES. Like-named read-outs stand apart in the source and are kept apart here. Starred links: 1 amine or outer side, 2 acyl side, 3 side chain; linkers in the order of their positions; H or OH if unused. Non-standard residues stand in square brackets, D forms with d. Residues, ends and D or L forms follow the SMILES beside them. Groups on a side chain read outwards from the residue. *: point of attachment. C20 diacid = O=C(O)CCCCCCCCCCCCCCCCCCC(=O)*; C18 diacid = O=C(O)CCCCCCCCCCCCCCCCC(=O)*; Dip = N[C@H](C(=O)O)C(c1ccccc1)c1ccccc1; γGlu = O=C(O)[C@H](CCC(=O)[*:2])N[*:1]; αMeF = C[C@](N)(Cc1ccccc1)C(=O)O; AEEA = NCCOCCOCC(=O)O; Aib = CC(C)(N)C(=O)O

Assay [1] deals with T1, human glucagon receptor (hGCGR) (Homo sapiens, UniProt P47871).
T1 construct: expressed in transfected cells; host or cells: CHO
T1 sequence (P47871 26-477): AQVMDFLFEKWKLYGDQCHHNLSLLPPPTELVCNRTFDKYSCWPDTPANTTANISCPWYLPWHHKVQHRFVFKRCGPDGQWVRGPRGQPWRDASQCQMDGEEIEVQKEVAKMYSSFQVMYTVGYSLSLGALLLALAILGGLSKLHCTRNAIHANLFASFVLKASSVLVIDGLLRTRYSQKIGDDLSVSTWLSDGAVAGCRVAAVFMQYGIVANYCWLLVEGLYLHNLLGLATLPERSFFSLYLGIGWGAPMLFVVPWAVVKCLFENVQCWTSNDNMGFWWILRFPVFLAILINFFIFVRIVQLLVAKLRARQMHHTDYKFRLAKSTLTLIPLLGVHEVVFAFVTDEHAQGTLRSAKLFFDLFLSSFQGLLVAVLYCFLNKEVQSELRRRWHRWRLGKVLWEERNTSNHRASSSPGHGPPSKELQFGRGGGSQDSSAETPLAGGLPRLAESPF
As to the kind of experiment: cAMP production (HTRF) in CHO cells expressing human glucagon receptor. It is filed as cell-based. Here is the method:
Cells were re-suspended in assay buffer at a batch-dependent optimized concentration (typically hGLP-1R cells at 1×10^5 cells/mL, hGCGR cells at 2×10^5 cells/mL).
Cells were added to the assay plate using a multidrop dispenser and incubated at room temperature for 30 minutes before measuring the cAMP level using a cAMP dynamic 2 homogeneous time resolved Fluorescence (HTRF) kit (Cisbio Bioassays #62AM4PEJ) following the two-step protocol as per manufacturer's recommendations. In brief, anti-cAMP cryptate (donor fluorophore) and cAMP-d2 (acceptor fluorophore) were made up separately by diluting each 1 in 20 in conjugate and lysis buffer provided in the kit. Anti-cAMP cryptate was added to all wells of the assay plate, followed by cAMP-d2 added to all wells except non-specific binding (NSB) wells (to which conjugate and lysis buffer was added).
Data was transformed to % Delta F as described in the manufacturer's guidelines and analyzed by 4-parameter logistic fit to determine EC50 values.
(Cyclic AMP is a second messenger, typically raised through Gs and lowered through Gi signalling.)

Assay [2] has as its target T2, human GLP-1 receptor (hGLP-1R) (Homo sapiens, UniProt P43220).
T2 construct: expressed in transfected cells; host or cells: CHO
Briefly: cAMP production (HTRF) in CHO cells expressing human GLP-1 receptor. Type of assay: cell-based. As to conditions: for EC50: cAMP, geometric mean; for % Relative Potency Ratio: % GLP-1R activity relative to GLP-1 / % GlucR activity relative to glucagon.

[3] abbreviates: Table 7, modification at position 20, CHO cells expressing hGCGR, geometric mean, read-out: hGluc-R EC50.
The mark [4] stands for this setting: Table 7, modification at position 20, CHO cells expressing hGLP-1R, read-out: hGLP-1R EC50.

T2 sequence (P43220 24-463): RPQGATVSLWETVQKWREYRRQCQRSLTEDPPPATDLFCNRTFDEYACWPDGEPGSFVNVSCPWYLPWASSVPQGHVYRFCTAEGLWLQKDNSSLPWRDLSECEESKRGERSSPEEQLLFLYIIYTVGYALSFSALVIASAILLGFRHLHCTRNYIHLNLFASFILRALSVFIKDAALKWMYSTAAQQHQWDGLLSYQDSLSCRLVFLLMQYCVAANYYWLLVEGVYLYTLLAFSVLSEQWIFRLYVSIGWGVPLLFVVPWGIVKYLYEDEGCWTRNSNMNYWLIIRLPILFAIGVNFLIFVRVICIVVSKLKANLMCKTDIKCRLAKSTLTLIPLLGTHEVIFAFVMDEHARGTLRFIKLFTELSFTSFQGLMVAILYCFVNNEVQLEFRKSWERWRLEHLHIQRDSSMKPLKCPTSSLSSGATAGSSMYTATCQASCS

Usually EC50 stands for the concentration that produces a half-maximal response. Regarding `CC[C@H](C)[C@H](NC(=O)[C@H](Cc1c[nH]c2ccccc12)NC(=O)[C@H](CCC(N)=O)NC(=O)[C@@H](NC(=O)[C@H](Cc1ccccc1)NC(=O)[C@H](CC(=O)O)NC(=O)[C@H](CCCCNC(=O)COCCOCCNC(=O)COCCOCCNC(=O)CC[C@H](NC(=O)CCCCCCCCCCCCCCCCC(=O)O)C(=O)O)NC(=O)[C@H](C)NC(=O)[C@H](C)NC(=O)[C@H](CCCNC(=N)N)NC(=O)[C@H](CO)NC(=O)[C@H](CC(=O)O)NC(=O)[C@H](CC(C)C)NC(=O)[C@](C)(Cc1ccccc1)NC(=O)[C@H](CCCCN)NC(=O)[C@H](CO)NC(=O)[C@@H](NC(=O)[C@H](CC(=O)O)NC(=O)[C@H](CO)NC(=O)[C@@H](NC(=O)[C@](C)(Cc1ccccc1)NC(=O)[C@@H](NC(=O)CNC(=O)[C@H](CCC(N)=O)NC(=O)C(C)(C)NC(=O)[C@@H](N)Cc1c[nH]cn1)[C@@H](C)O)[C@@H](C)O)C(C)C)C(C)C)C(=O)N[C@@H](C)C(=O)N[C@@H](CC(N)=O)C(=O)N[C@H](C(N)=O)[C@@H](C)O` [Peptide 204] (H-H[Aib]QGT[αMeF]TSDVSK[αMeF]LDSRAAK([AEEA-AEEA-γGlu-C18 diacid])DFVQWIANT-NH2; N-terminus assumed), the 50% effective concentration (EC50) in assay [1] (setting [3]) was 595 pM; in assay [2] (setting [4]) it was 43.3 pM. Also, the “% Relative Potency Ratio” value in assay [2] (Table 7) is given as 27.2.
As for `CC[C@H](C)[C@H](NC(=O)[C@H](Cc1c[nH]c2ccccc12)NC(=O)[C@H](CCCCNC(=O)CC[C@H](NC(=O)CCCCCCCCCCCCCCCCC(=O)O)C(=O)O)NC(=O)[C@@H](NC(=O)[C@H](Cc1ccccc1)NC(=O)[C@H](CC(=O)O)NC(=O)[C@H](CCC(N)=O)NC(=O)[C@H](C)NC(=O)[C@H](C)NC(=O)[C@H](CCCNC(=N)N)NC(=O)[C@H](CO)NC(=O)[C@H](CC(=O)O)NC(=O)[C@H](CC(C)C)NC(=O)[C@@H](NC(=O)[C@H](CCCCN)NC(=O)[C@H](CO)NC(=O)[C@@H](NC(=O)[C@H](CC(=O)O)NC(=O)[C@H](CO)NC(=O)[C@@H](NC(=O)[C@H](Cc1ccccc1)NC(=O)[C@H](CO)NC(=O)CNC(=O)[C@H](CCC(N)=O)NC(=O)C(C)(C)NC(=O)[C@@H](N)Cc1c[nH]cn1)[C@@H](C)O)C(C)C)C(c1ccccc1)c1ccccc1)C(C)C)C(=O)N[C@@H](C)C(=O)N[C@@H](CC(N)=O)C(=O)N[C@H](C(N)=O)[C@@H](C)O` [Peptide 343] (H-H[Aib]QGSFTSDVSK[Dip]LDSRAAQDFVK([γGlu-C18 diacid])WIANT-NH2), the concentration giving a half-maximal response (EC50) in assay [1] (setting [3]) stood at 19600 pM; in assay [2] (setting [4]) it was 198 pM. Further, the “% Relative Potency Ratio” value in assay [2] (Table 7) was found to be 196.1; in assay [2] (Table 8), 4.2.
On to `CCCCCCCCCCCCCCCCCC(=O)N[C@@H](CCC(=O)N[C@@H](CCC(=O)NCCOCCOCCC(=O)NCCOCCOCCC(=O)NCCCC[C@H](NC(=O)[C@H](CCCCN)NC(=O)[C@H](CO)NC(=O)[C@@H](NC(=O)[C@H](CC(=O)O)NC(=O)[C@H](CO)NC(=O)[C@@H](NC(=O)[C@](C)(Cc1ccccc1)NC(=O)[C@H](CO)NC(=O)CNC(=O)[C@H](CCC(N)=O)NC(=O)[C@H](CO)NC(=O)[C@@H](N)Cc1c[nH]cn1)[C@@H](C)O)C(C)C)C(=O)N[C@@H](CC(C)C)C(=O)N[C@@H](CC(=O)O)C(=O)N[C@@H](CO)C(=O)N[C@H](C(=O)N[C@@H](C)C(=O)N[C@@H](C)C(=O)N[C@@H](CCC(N)=O)C(=O)N[C@@H](CC(=O)O)C(=O)N[C@@](C)(Cc1ccccc1)C(=O)N[C@H](C(=O)N[C@@H](CCC(=O)O)C(=O)N[C@@H](Cc1c[nH]cn1)C(=O)N[C@@H](CC(C)C)C(=O)N[C@@H](C)C(=O)N[C@@H](CC(N)=O)C(=O)N[C@H](C(N)=O)[C@@H](C)O)C(C)C)C(C)(C)CCNC(=N)N)C(=O)O)C(=O)O` [Peptide 404, HSQGS(αMePhe)TSDVSKK((PEG)2-(PEG)2-γE-γE-Stearoyl)13LDS(ß-dimethylArg)AAQD(αMePhe)VEHLANT-amide], for which the concentration for a half-maximal effect (EC50) in assay [1] (Table 10, peptides modified at position 13, geometric mean, CHO cells, read-out: hGluc-R EC50) was found to be 21.8 pM; in assay [2] (Table 10, peptides modified at position 13, CHO cells, read-out: hGLP-1R EC50), 5.65 pM. Besides, the “% Relative Potency Ratio” value in assay [2] (Table 10) amounted to 7.6.
On to `CC(C)C[C@H](NC(=O)[C@H](Cc1c[nH]c2ccccc12)NC(=O)[C@H](CCCNC(=N)N)NC(=O)[C@@H](NC(=O)[C@H](Cc1ccccc1)NC(=O)[C@H](CC(=O)O)NC(=O)[C@H](CCC(N)=O)NC(=O)[C@H](C)NC(=O)[C@H](CCCNC(=N)N)NC(=O)[C@H](CCCCNC(=O)COCCOCCNC(=O)COCCOCCNC(=O)CC[C@H](NC(=O)CCCCCCCCCCCCCCCCCCC(=O)O)C(=O)O)NC(=O)[C@@H](NC(=O)[C@H](CC(=O)O)NC(=O)[C@H](CC(C)C)NC(=O)[C@](C)(Cc1ccccc1)NC(=O)[C@H](CCCCN)NC(=O)[C@H](CO)NC(=O)[C@@H](NC(=O)[C@H](CC(=O)O)NC(=O)[C@H](CO)NC(=O)[C@@H](NC(=O)[C@H](Cc1ccccc1)NC(=O)[C@@H](NC(=O)CNC(=O)[C@H](CCC(N)=O)NC(=O)C(C)(C)NC(=O)[C@@H](N)Cc1c[nH]cn1)[C@@H](C)O)[C@@H](C)O)C(C)C)[C@@H](C)O)C(C)C)C(=O)N[C@@H](CCC(=O)O)C(=O)N[C@@H](C)C(=O)NC(C)(C)C(=O)NCC(=O)O` [Peptide 407], for which the 50% effective concentration (EC50) in assay [1] (Table 6, modification at position 17, CHO cells expressing hGCGR, geometric mean, read-out: hGluc-R EC50) is 462 pM; in assay [2] (Table 6, modification at position 17, CHO cells expressing hGLP-1R, read-out: hGLP-1R EC50) it was 209 pM.
Take `CC[C@H](C)[C@H](NC(=O)C(C)(C)NC(=O)[C@H](CCCCNC(=O)COCCOCCNC(=O)COCCOCCNC(=O)CC[C@H](NC(=O)CC[C@H](NC(=O)CCCCCCCCCCCCCCCCCCC(=O)O)C(=O)O)C(=O)O)NC(=O)[C@@H](NC(=O)[C@](C)(Cc1ccccc1)NC(=O)[C@H](CC(=O)O)NC(=O)[C@H](CCC(N)=O)NC(=O)[C@H](C)NC(=O)[C@H](C)NC(=O)[C@H](CCCNC(=N)N)NC(=O)[C@H](CO)NC(=O)[C@H](CC(=O)O)NC(=O)[C@H](CC(C)C)NC(=O)[C@](C)(Cc1ccccc1)NC(=O)[C@H](CCCCN)NC(=O)[C@H](CO)NC(=O)[C@@H](NC(=O)[C@H](CC(=O)O)NC(=O)[C@H](CO)NC(=O)[C@@H](NC(=O)[C@](C)(Cc1ccccc1)NC(=O)[C@H](CO)NC(=O)CNC(=O)[C@H](Cc1c[nH]cn1)NC(=O)C(C)(C)NC(=O)[C@@H](N)Cc1c[nH]cn1)[C@@H](C)O)C(C)C)C(C)C)C(=O)N[C@@H](C)C(=O)N[C@@H](CC(N)=O)C(=O)N[C@H](C(=O)NCC(=O)NCC(N)=O)[C@@H](C)O` [Peptide 376] (H-H[Aib]HGS[αMeF]TSDVSK[αMeF]LDSRAAQD[αMeF]VK([AEEA-AEEA-γGlu-γGlu-C20 diacid])[Aib]IANTGG-NH2; N-terminus assumed): the half-maximal effective concentration (EC50) in assay [1] (Table 8, peptides modified at position 24, geometric mean, CHO cells, read-out: hGluc-R EC50) is 853 pM; in assay [2] (Table 8, peptides modified at position 24, CHO cells, read-out: hGLP-1R EC50), 156 pM. Also, the “% Relative Potency Ratio” value in assay [2] (Table 8) was 10.8.
As for `CC[C@H](C)[C@H](NC(=O)[C@H](Cc1c[nH]c2ccccc12)NC(=O)[C@H](CCCCNC(=O)CC[C@H](NC(=O)CCCCCCCCCCCCCCCCC(=O)O)C(=O)O)NC(=O)[C@@H](NC(=O)[C@H](Cc1ccccc1)NC(=O)[C@H](CC(=O)O)NC(=O)[C@H](CCC(N)=O)NC(=O)[C@H](C)NC(=O)[C@H](C)NC(=O)[C@H](CCC(N)=O)NC(=O)[C@H](CO)NC(=O)[C@H](CC(=O)O)NC(=O)[C@H](CC(C)C)NC(=O)[C@](C)(Cc1ccccc1)NC(=O)[C@H](CCCCN)NC(=O)[C@H](CO)NC(=O)[C@@H](NC(=O)[C@H](CC(=O)O)NC(=O)[C@H](CO)NC(=O)[C@@H](NC(=O)[C@H](Cc1ccccc1)NC(=O)[C@@H](NC(=O)CNC(=O)[C@H](Cc1c[nH]cn1)NC(=O)C(C)(C)NC(=O)[C@@H](N)Cc1c[nH]cn1)[C@@H](C)O)[C@@H](C)O)C(C)C)C(C)C)C(=O)N[C@@H](C)C(=O)N[C@@H](CC(N)=O)C(=O)N[C@H](C(N)=O)[C@@H](C)O` [Peptide 346], the concentration giving a half-maximal response (EC50) came to 203 pM in assay [1] (hGluc-R EC50 (pM), Table 8, peptides modified at position 24, geometric mean, CHO cells) and 7320 pM in assay [2] (hGLP-1R EC50 (pM), Table 8, peptides modified at position 24, CHO cells). In addition, the “% Relative Potency Ratio” value in assay [2] (Table 8) worked out at 0.1.
